Literature values, collected in patent US20240366601A1, “METHODS FOR TREATING TRAUMATIC BRAIN INJURY” (The Regents of the University of California, priority 2021, published 2024).

What was measured:
CDK4 = CDK4 (Homo sapiens, UniProt P11802); conditions: for CDK4; read-out: in vitro IC50 (nM) in cell-free assays
[1] = FDA-approved doses for cancer treatments; list continues over the following table lines

CDK4, sequence (P11802 whole entry): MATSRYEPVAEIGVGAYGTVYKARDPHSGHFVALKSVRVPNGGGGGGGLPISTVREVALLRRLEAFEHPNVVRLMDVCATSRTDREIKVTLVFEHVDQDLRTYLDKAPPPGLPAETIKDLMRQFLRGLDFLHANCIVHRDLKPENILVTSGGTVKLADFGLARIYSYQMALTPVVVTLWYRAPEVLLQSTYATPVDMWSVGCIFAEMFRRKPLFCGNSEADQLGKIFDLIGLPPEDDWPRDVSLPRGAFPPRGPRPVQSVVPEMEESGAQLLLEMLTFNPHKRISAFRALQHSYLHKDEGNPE
CDK4, sequence (P24385 whole entry partner): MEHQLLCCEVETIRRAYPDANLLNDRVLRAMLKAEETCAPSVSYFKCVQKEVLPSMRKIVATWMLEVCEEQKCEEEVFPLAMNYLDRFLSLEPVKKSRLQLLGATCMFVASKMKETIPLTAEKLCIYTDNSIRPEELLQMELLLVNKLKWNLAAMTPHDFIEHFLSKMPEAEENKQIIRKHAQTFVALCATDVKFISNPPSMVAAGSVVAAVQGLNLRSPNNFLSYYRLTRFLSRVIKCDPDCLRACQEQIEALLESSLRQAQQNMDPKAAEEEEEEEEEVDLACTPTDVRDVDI

Row | Compound | IC50 (CDK4) | Common Side effects at FDA-approved doses (Medline Plus) [1]
1 | CN1CCN(c2ccc(Nc3ncc4cc(C#N)c(=O)n(C5CCCC5)c4n3)cc2)CC1 [ON123300] | 3.9 nM | –
2 | CCN1CCN(Cc2ccc(Nc3ncc(F)c(-c4cc(F)c5nc(C)n(C(C)C)c5c4)n3)nc2)CC1 [abemaciclib] | – | diarrhea, nausea, abdominal pain, infections, tiredness, anemia, leukopenia,
3 | CN(C)C(=O)c1cc2cnc(Nc3ccc(N4CCNCC4)cn3)nc2n1C1CCCC1 [ribociclib] | – | diarrhea; constipation; stomach pain; headache; hair loss; back pain; itching;
